Consider six compounds from patent publication US7534590B2, “Method for producing monatin” (AJINOMOTO Co., Inc., priority 2003, dated 2009).

Molecules are shown by their SMILES. “Also recorded” adds a separate entry of the source.

Series [1] in a line: pH stability of IHOG in buffer. The format is physicochemical. To be noted: 0.54 mM IHOG, 40 mM potassium phosphate buffer, 35° C. How it is done: [II] pH Stability of IHOG in Buffer
The survival rate of IHOG (0.54 mM) was measured in 40 mM potassium phosphate buffer at different pH. The storage temperature was adjusted to 35° C.

Series [2] in a line: stability in strongly acidic or strongly alkaline solution to be treated. The format is physicochemical. Particulars: for stability in strongly acidic solution: strongly acidic region. An excerpt:
The value of pH in the solution to be treated may be 2 to 12, more preferably 7 to 11 and particularly preferably 8 to 9.
When the solution to be treated is strongly acidic or alkaline and contains IHOG, IHOG is decomposed and can not be recovered. […] This cyclization is an irreversible reaction, and therefore, it is difficult to regenerate the cyclized IHOG to reuse for the monatin production.

Series [3] in a line: pH stability of IHOG in amination reaction solution (without microbial cells). The format is physicochemical. How it is done: [I] pH Stability of IHOG in Amination Reaction Solution
In order to examine the stability of IHOG in the IHOG amination solution, change of IHOG amounts with time in an IHOG amination solution was measured without adding the microbial cells. A test tube containing 1 mL of the reaction solution composed of 100 mM potassium phosphate buffer (pH 8.3), 300 mM (±)-IHOG, 600 mM DL-Ala and 1 mM pyridoxal-5′-phosphate was shaken at 37° C. for 40 hours, to perform the reaction. […] This is presumed to be attributed to the decomposition of IHOG into indole-3-pyruvic acid and pyruvic acid and the cyclization of IHOG.

For series [4] the following is noted: cited from earlier work; for sweetness potency: relative to sucrose.

`O=C(O)C(=O)CC(O)(Cc1c[nH]c2ccccc12)C(=O)O` (racemic) [IHOG, 4-(indol-3-ylmethyl)-4-hydroxy-2-oxoglutaric acid]: the “Survival rate of IHOG” value was determined as 97.4% in series [1] (pH 7, 2 hr); 90.0% in series [1] (pH 7, 7 hr); 68.4% in series [1] (pH 7, 24 hr); 45.6% in series [1] (pH 7, 48 hr); 100.6% in series [1] (pH 8, 2 hr); 100.1% in series [1] (pH 8, 7 hr). Besides, the “Survival rate of IHOG” value in series [1] (pH 8, 24 hr) is reported as 96.4%; in series [1] (pH 8, 48 hr) it was 89.6%; in series [1] (pH 9, 2 hr), 100.6%; in series [1] (pH 9, 7 hr), 101.1%; in series [1] (pH 9, 24 hr), 99.0%; in series [1] (pH 9, 48 hr), 94.4%. For the same compound, the “Survival rate of IHOG” value in series [1] (pH 10, 2 hr) was 97.0%; in series [1] (pH 10, 7 hr), 96.8%; in series [1] (pH 10, 24 hr) it was 94.2%; in series [1] (pH 10, 48 hr), 90.8%; in series [1] (pH 11, 2 hr), 95.6%; in series [1] (pH 11, 7 hr) it was 90.7%. The “Survival rate of IHOG” value in series [1] (pH 11, 24 hr) is 74.8%; in series [1] (pH 11, 48 hr) it was 59.3%; in series [3] (100 mM potassium phosphate buffer pH 8.3, 300 mM (±)-IHOG, 600 mM DL-Ala, 1 mM pyridoxal-5'-phosphate, 37° C., after 16 hours), 81%; in series [3] (same amination solution pH 8.3, 37° C., after 24 hours), 70%; in series [3] (same amination solution pH 8.3, 37° C., after 40 hours), 57%. For the same compound, in series [2], the “stability in strongly acidic solution” value is reported as “easily cyclized”. Also, the “stability in strongly alkaline solution” value in series [2] (strongly alkaline solution) was “easily decomposed into indole-3-pyruvic acid and pyruvic acid spontaneously”.

On to `N[C@H](C[C@](O)(Cc1c[nH]c2ccccc12)C(=O)O)C(=O)O` (single isomer, unassigned) [(2R, 4R)-isomer], for which the “sweetness rank among four optical isomers of monatin” value in series [4] (comparison of the monatin isomers, listed as (2R, 4R)-monatin) was “the isomer having the highest sweetness among four optical isomers of monatin; also recorded: highest sweetness potency among monatin isomers”. Besides, the sweetness potency entry in series [4] is given as “hundreds of times to thousands of times stronger than sucrose”.

Turning to `N[C@H](C[C@@](O)(Cc1c[nH]c2ccccc12)C(=O)O)C(=O)O` (single isomer, unassigned) [(2R, 4S)-isomer], the sweetness potency entry in series [4] is on record as “hundreds of times to thousands of times stronger than sucrose”.

Take `N[C@@H](C[C@](O)(Cc1c[nH]c2ccccc12)C(=O)O)C(=O)O` (single isomer, unassigned) [(2S, 4R)-isomer]: the sweetness potency result in series [4] is given as “hundreds of times to thousands of times stronger than sucrose”.

Turning to `NC(CC(O)(Cc1c[nH]c2ccccc12)C(=O)O)C(=O)O` (single isomer, unassigned) [(2S, 4S)-isomer], the sweetness potency entry in series [4] was “hundreds of times to thousands of times stronger than sucrose”.

For the compound `NC(CC(O)(Cc1c[nH]c2ccccc12)C(=O)O)C(=O)O` (centres unmarked) [Monatin], in series [2], the “stability in strongly acidic solution” value is “partially decomposed into lactam and lactone”. Also, in series [4], the sweetness potency entry is recorded as “dozens to thousands of times stronger than that of sucrose”.
